Data taken from US20260315434A1, “USE OF GUAIACOL SESQUITERPENE LACTONE DERIVATIVES” (NANJING UNIVERSITY OF CHINESE MEDICINE, priority 2023, published 2026).
Marks after values point to notes of the source that are not given here.

Tests used:
rat arthritis = details: in vivo; cited from earlier work
MDSCs = assay: Inhibition of MDSC chemotaxis (Transwell, tumor-conditioned medium); assay type: cell-based, mouse; details: Mus musculus, read-out: Suppression Rate (MDSC chemotaxis)
Method: Hepa1-6 mouse hepatocellular carcinoma cells were uniformly seeded into 6-well plates. After cells reached confluence, supernatant was aspirated, and 1-1.5 mL fresh medium was added to each well. Following 24 h culture, supernatant was collected, centrifuged at 1600 rpm for 5 min, aspirated, and filtered through a 0.22 μm membrane to obtain tumor-conditioned medium for subsequent use. […] Under sterile conditions, remove the tibia, cut both ends of the bone, and aspirate the bone marrow into a 1 mL syringe. Repeat flushing into a 15 mL centrifuge tube. Centrifuge at 1600 rpm for 5 min to collect bone marrow cells. Wash twice with 1×PBS. […] Count cells, adjust density to 1×10^6 cells/mL, and uniformly seed into 24-well plates at 300 μL per well. […] Centrifuge at 1600 rpm for 5 min, remove supernatant, resuspend cells in 300 μL fresh medium, and place into Transwell chambers. […] Co-culture for 24 h.

[1] = 8 h; cited from earlier work
H22 cells = assay: Antitumor efficacy combined with anti-PD-L1 monoclonal antibody, H22 xenograft; assay type: in vivo, Balb/c mice; details: 2 weeks; for combination with anti-PD-L1 monoclonal antibody vs. single agents, H22: 2.5 mg/kg/day i.p., result in words; for Tumor inhibition rate (%) / Tumor weight: dose 2.5 (head μmol/kg/day; text 2.5 mg/kg/day), i.p. daily, H22
Method: H22 cells were cultured and expanded in vitro. An appropriate number of cells in the logarithmic growth phase was resuspended in a mixture of serum-free RPMI 1640 medium and Matrigel (1:1). Under aseptic conditions, prepare a2×10^6/100 μL cell suspension. Using a syringe, inject 100 μL of the cell suspension subcutaneously into the left forelimb axilla of male Balb/c mice. […] Compounds 20 and 103 were administered daily via intraperitoneal injection, while anti-PD-L1 monoclonal antibody was administered every three days via intraperitoneal injection for a 2-week treatment period. During the treatment period, mouse body weight and tumor diameter were measured daily. At the end of the experiment, mice were euthanized by cervical dislocation, and tumors were removed and weighed. Tumor volume (TV) was calculated using the formula: TV=½×a×b^2, where a represents the longest diameter of the tumor and b represents the shortest diameter.

[2] = test system: inflammatory cytokines (TNF, IL-6, IL-1) in lung tissue; assay: LPS-induced sepsis, lung inflammatory factor mRNA (Q-PCR); details: for Il1 mRNA expression, lung: LPS 19.01; for Il6 mRNA expression, lung: LPS 20.34; for Tnf mRNA expression, lung: Normal = 1.00, LPS 10.92
Excerpt: They were acclimated for 7 days before experimentation.
The normal and model groups received equal volumes of solvent (0.5% CMC-Na) via oral gavage.
Specimen Collection: One hour after the final drug administration, mice were euthanized by cervical dislocation. The abdominal cavity was opened, and the lungs, liver, and kidneys were removed. These organs were rinsed twice with pre-chilled PBS. Tissue samples were excised from the mouse lungs, left hepatic lobe, and kidneys. […] Remaining tissues were stored at −70° C. for future use.
Accurately weigh 20 mg of kidney, lung, and liver tissue. Rinse with pre-chilled PBS solution, cut into small pieces using ophthalmic scissors, and place into a glass homogenizer. Add 1 mL of Trizol reagent and grind to prepare tissue homogenate. Transfer the homogenate to a RNAse-free 1.5 mL EP tube and lyse on ice for 10 min. Add 200 μL chloroform, vortex vigorously, and let stand on ice for 3-5 min. Centrifuge at 12,000 rpm and 4° C. for 15 min. Carefully transfer the supernatant to a new RNAse-free 1.5 mL EP tube. Add an equal volume of pre-chilled isopropanol, incubate on ice for 30 min, then centrifuge at 12,000 rpm and 4° C. for 10 min. Discard the supernatant. […] Subsequently, dissolve the pellet in 10 μL DEPC-treated water. Dilute 1 μL of the total RNA solution 100-fold and measure the OD values at 260 nm and 280 nm using a full-wavelength microplate reader.
Following the method described in the kit manual, subsequent experiments were conducted using a 20 μL reverse transcription reaction system:
Primers were designed based on the nucleotide sequence of the mouse in GenBank and synthesized.
Perform subsequent experiments using a 20 μL reaction system according to the kit instructions:
After adding the above reagents to micro reaction tubes, seal them with the cap and place them in the Q-PCR instrument. Set the parameters according to the following reaction conditions to perform the amplification experiment.
Record the threshold cycle (Ct) values for each group and perform calculation and analysis using the 2^−ΔΔCt method (setting the expression level of the reference gene Gapdh as 1 to correct the expression levels of the target genes).
Data Statistics: All data are presented as Means±S.E.M. Analysis of variance (ANOVA) was performed to assess the significance of differences. Groups showing significant differences in ANOVA were further compared using one-way ANOVA and Dunnett's test. A P-value <0.05 was considered statistically significant.

[3] = Safety evaluation, mouse body weight (30 days oral); assay type: in vivo, C57BL/6 mice; design: Mouse body weight: unit not given here; details: for Mouse body weight: oral gavage once daily
Excerpt: The Normal group received an equal volume of solvent (saline).

Hepa1-6 cells = assay: Antitumor efficacy combined with anti-PD-L1 monoclonal antibody, Hepa1-6 xenograft; assay type: in vivo, C57BL/6 mice; details: for combination with anti-PD-L1 monoclonal antibody vs. single agents, Hepa1-6: 1 mg/kg/day i.p., 2 weeks, result in words
Method: Hepa1-6 cells were cultured and expanded in vitro. An appropriate number of cells in the logarithmic growth phase was resuspended in a mixture of serum-free DMEM medium and Matrigel (1:1). Under sterile conditions, prepare a cell suspension at 2.5×10^6 cells/100 μL. Using a syringe, inject 100 μL of the cell suspension subcutaneously into the left forelimb axilla of male C57BL/6 mice. […] Compounds 20 and 103 were administered via intraperitoneal injection daily, while anti-PD-L1 monoclonal antibody was administered intraperitoneally every three days for a total of two weeks. During the treatment period, mouse body weight and tumor diameter were measured daily. At the end of the experiment, mice were euthanized by cervical dislocation, and tumors were removed and weighed. Tumor volume (TV) was calculated using the formula: TV=½×a×b^2, where a represents the longest diameter of the tumor and b represents the shortest diameter.

[4] = test system: renal injury markers (Kim-1, Ngal) in kidney tissue; assay: Diabetic nephropathy, renal injury marker mRNA; assay type: in vivo, C57/BL6J mice; details: 8 weeks
Method: (§1) Experimental animals: C57/BL6J mice, male, 12 weeks old, purchased from GemPharmatech LLC. Production license number: SCXK(Su)2023-0009. […] Animals were acclimated for 7 days before use in experiments.
(§2) Administer streptozotocin (STZ, 50 mg/kg) via intraperitoneal injection for 5 consecutive days. After 72 hours, select mice with fasting blood glucose levels exceeding 16.7 mmol/L as model mice. […] Model mice were fed a high-fat diet (HFD) providing 60% of energy from fat for 8 weeks. After 8 weeks, gavage administration commenced.
(§3) Specimen Collection: One hour after the last drug administration, enucleate the eyeball to collect blood. Allow blood to stand at room temperature for 2 hours, then centrifuge at 3000 rpm for 20 minutes. Aspirate the serum, aliquot it, and store at −70° C. for future use. After blood collection, euthanize the mice by cervical dislocation. Open the abdominal cavity, remove the kidneys, and dissect away the perirenal fat and capsule. Store the tissue at −70° C. for future use.

[5] = test system: inflammatory factors (MCP-1, TNF-α) in renal tissue; assay: Diabetic nephropathy, renal inflammatory factor mRNA; assay type: in vivo, C57/BL6J mice; design: Mcp-1 mRNA expression, kidney / Tnf-α mRNA expression, kidney / IL-6 mRNA expression, kidney: unit not given here; details: 8 weeks
Method: as §1, §2, §3

[6] = dose 1 (head μmol/kg/day; text 1 mg/kg/day), i.p. daily, two weeks, Hepa1-6

## C=C1C(=O)O[C@@H]2[C@H]3C(C)=CC[C@@]34O[C@@]4(C)CC[C@@H]12 [Arg, Arglabin, reference compound]
Rat arthritis
  joint swelling: significantly suppressed
  serum levels of TNF-α, IL-1β, and IL-6: lowered
MDSCs
  inhibition at 1 µM: 42.5%
  inhibition at 10 µM: 73.2%
[1]
  degradation rate in gastric fluid: 50%

## CN(C)C[C@@H]1C(=O)O[C@H]2[C@H]1CC[C@@]1(C)C[C@]13CC[C@@](C)(O)[C@H]23 [Compound 20]
H22 cells
  combination with anti-PD-L1 monoclonal antibody vs. single agents, H22: synergistic effect
  Tumor inhibition rate (%): 48.67%
  Tumor weight: 0.64 ± 0.09 g
[2]; 1 mg/kg oral
  Il1 mRNA expression, lung: 5.22 ± 0.90
  Il6 mRNA expression, lung: 7.16 ± 0.71
  Tnf mRNA expression, lung: 6.52 ± 0.29
[3]; 500, 1000 mg/kg oral, 30 days, P>0.05
  body weight: no significant effect
[3]; female, 500 mg/kg, day 1
  Mouse body weight: 100.00 ± 0.00
[3]; female, 500 mg/kg, day 5
  Mouse body weight: 100.41 ± 0.43
[3]; female, 500 mg/kg, day 10
  Mouse body weight: 99.01 ± 1.34
[3]; female, 500 mg/kg, day 15
  Mouse body weight: 100.03 ± 0.95
[3]; female, 500 mg/kg, day 20
  Mouse body weight: 100.52 ± 0.74
[3]; female, 500 mg/kg, day 25
  Mouse body weight: 99.81 ± 1.72
[3]; female, 500 mg/kg, day 30
  Mouse body weight: 99.79 ± 2.55
[3]; female, 1000 mg/kg, day 1
  Mouse body weight: 100.00±0.00
[3]; female, 1000 mg/kg, day 5
  Mouse body weight: 101.96 ± 0.55
[3]; female, 1000 mg/kg, day 10
  Mouse body weight: 101.80 ± 2.02
[3]; female, 1000 mg/kg, day 15
  Mouse body weight: 99.77 ± 2.60
[3]; female, 1000 mg/kg, day 20
  Mouse body weight: 101.04 ± 2.13
[3]; female, 1000 mg/kg, day 25
  Mouse body weight: 99.06 ± 3.56
[3]; female, 1000 mg/kg, day 30
  Mouse body weight: 100.67 ± 0.91
[3]; male, 500 mg/kg, day 1
  Mouse body weight: 100.00 ± 0.00
[3]; male, 500 mg/kg, day 5
  Mouse body weight: 100.31 ± 0.89
[3]; male, 500 mg/kg, day 10
  Mouse body weight: 101.51 ± 4.00
[3]; male, 500 mg/kg, day 15
  Mouse body weight: 99.27 ± 2.11
[3]; male, 500 mg/kg, day 20
  Mouse body weight: 101.29 ± 0.40
[3]; male, 500 mg/kg, day 25
  Mouse body weight: 98.93 ± 0.60
[3]; male, 500 mg/kg, day 30
  Mouse body weight: 100.10 ± 1.08
[3]; male, 1000 mg/kg, day 1
  Mouse body weight: 100.00 ± 0.00
[3]; male, 1000 mg/kg, day 5
  Mouse body weight: 101.48 ± 1.30
[3]; male, 1000 mg/kg, day 10
  Mouse body weight: 101.22 ± 0.84
[3]; male, 1000 mg/kg, day 15
  Mouse body weight: 100.47 ± 1.28
[3]; male, 1000 mg/kg, day 20
  Mouse body weight: 100.15 ± 2.76
[3]; male, 1000 mg/kg, day 25
  Mouse body weight: 98.35 ± 1.14
[3]; male, 1000 mg/kg, day 30
  Mouse body weight: 100.71 ± 0.53
Hepa1-6 cells; 1 mg/kg/d i.p. combined with anti-PD-L1 monoclonal antibody (5 mg/kg/d)
  tumor inhibition rate, combination: 96.99%
Hepa1-6 cells
  combination with anti-PD-L1 monoclonal antibody vs. single agents, Hepa1-6: synergistic effect
[4]; 1 mg/kg gavage
  Kim-1 mRNA expression, kidney: 1.68 ± 0.17
  Ngal mRNA expression, kidney: 1.38 ± 0.17
[4]; 10 mg/kg gavage
  Kim-1 mRNA expression, kidney: 0.64 ± 0.10
  Ngal mRNA expression, kidney: 0.96 ± 0.13
[5]; 1 mg/kg gavage
  Mcp-1 mRNA expression, kidney: 2.33 ± 0.20
  Tnf-α mRNA expression, kidney: 1.38 ± 0.17
[5]; 10 mg/kg gavage
  Mcp-1 mRNA expression, kidney: 1.40 ± 0.22
  Tnf-α mRNA expression, kidney: 0.96 ± 0.13

## CN(C)C[C@@H]1C(=O)O[C@H]2[C@H]1CC[C@@]1(C)C[C@]13CC[C@@](C)(O)[C@H]23 [Compound 21]
[2]; 0.1 mg/kg oral
  Il1 mRNA expression, lung: 13.30 ± 0.88
  Il6 mRNA expression, lung: 18.40 ± 3.16
  Tnf mRNA expression, lung: 8.79 ± 1.18
[2]; 1 mg/kg oral
  Il1 mRNA expression, lung: 6.79 ± 0.72
  Il6 mRNA expression, lung: 9.10 ± 1.20
  Tnf mRNA expression, lung: 8.67 ± 1.51

## CC1=C2CC[C@@](C)(OC(=O)N3CCCC3)[C@@H]2[C@H]2OC(=O)[C@@H](CN3CCCC3)[C@@H]2CC1 [Compound 103]
H22 cells
  combination with anti-PD-L1 monoclonal antibody vs. single agents, H22: synergistic effect
  Tumor inhibition rate (%): 41.90%
  Tumor weight: 0.70 ± 0.08 g
Hepa1-6 cells
  combination with anti-PD-L1 monoclonal antibody vs. single agents, Hepa1-6: synergistic effect
Hepa1-6 cells; [6]
  Tumor inhibition rate (%): 62.26%
  Tumor weight: 0.16 ± 0.05 g
[4]; 1 mg/kg gavage
  Kim-1 mRNA expression, kidney: 0.98 ± 0.41
  Ngal mRNA expression, kidney: 2.34 ± 0.39
[4]; 10 mg/kg gavage
  Kim-1 mRNA expression, kidney: 0.75 ± 0.24
  Ngal mRNA expression, kidney: 2.08 ± 0.34
[5]; 1 mg/kg gavage
  IL-1 β mRNA expression, kidney: 1.00 ± 0.25 ^
  IL-6 mRNA expression, kidney: 4.47 ± 1.06
  Mcp-1 mRNA expression, kidney: 6.78 ± 1.70
  Tnf-α mRNA expression, kidney: 3.14 ± 0.57
[5]; 10 mg/kg gavage
  IL-1 β mRNA expression, kidney: 0.96 ± 0.18**^
  IL-6 mRNA expression, kidney: 3.97 ± 0.94
  Mcp-1 mRNA expression, kidney: 5.67 ± 2.31
  Tnf-α mRNA expression, kidney: 2.15 ± 0.13
